The values that follow come from patent US11254671B2, “Chemical compounds” (GLAXOSMITHKLINE INTELLECTUAL PROPERTY DEVELOPMENT LIMITED, priority 2017, dated 2022).

Values joined by “and” are separate entries in the source; they are usually repeats but may differ in a detail not shown here. Identical values can stand only once.

The target in test [1] is T1, mTOR (Homo sapiens, UniProt P42345).
T1 construct: capturing of endogenously expressed target proteins from cell extracts by a bead-immobilized capturing ligand; endogenous in cells; host or cells: HuT-78 cells (ECACC 88041901), cell lysate
In words: mTOR kinobeads assay (competition-binding assay). To be noted: HuT-78 cell extract, endogenously expressed mTOR, bead-immobilized capturing ligand; mean of multiple experiments; read-out: mean pIC50, affinity for mTOR (converted). As to the method: The affinity of test compounds for mTOR was determined in the mTOR kinobeads assay. This is a competition-binding assay based on the capturing of endogenously expressed target proteins from cell extracts by a bead-immobilized capturing ligand in presence of the test compound.
HuT-78 cells (European Collection of Authenticated Cell Cultures, 88041901) were cultured according to vendor's instructions. Frozen cell pellets were homogenized in 3× pellet volumes lysis buffer (50 mM Tris-HCl, 0.4% (v/v) Igepal-CA630, 5% glycerol, 150 mM NaCl, 1.5 mMMgCl2, 25 mM NaF, 1 mM sodium vanadate, 1 mM DTT, pH 7.5, supplemented with EDTA-free protease inhibitor tablet (Roche)). The sample was dispersed using a Dounce homogenizer, kept rotating for 30 min at 4° C., and centrifuged for 10 min at 20 000 g at 4° C. The supernatant was centrifuged again for 1 h at 145 000 g. The protein concentration was determined by Bradford assay (BioRad), aliquots were snap frozen in liquid nitrogen and stored at −80° C.
The capturing matrices were generated by derivatizing N-hydroxysuccinimide (NHS) activated Sepharose 4 beads (GE Healthcare) with the functionalized ligands Compound A and Compound C at a ligand density of 5 mM. Remaining NHS-groups were blocked with ethanolamine.
For the mTOR kinobeads assay the matrices were combined in a 1:1 ratio and equilibrated in DP buffer (50 mM Tris-HCl (pH 7.5), 0.4% (v/v) Igepal-CA630, 5% (v/v) glycerol, 150 mM NaCl, 1.5 mM MgCl2, 25 mM NaF, 1 mM Na3VO4, 1 mM dithiothreitol). All steps of the mTOR kinobeads assay were performed at 4° C. or on ice. The cell lysate was diluted with DP buffer to a final concentration of 5 mg/ml and a final detergent concentration of 0.4% (v/v) Igepal-CA630. For the assay 250 μg cell lysate and 2.5 μl capturing matrix per well (final assay volume: 75 μl) were incubated in the presence of test compounds in a 384-well filter plate (MultiScreenHTS HV Filter Plate, 0.45 μm, MZHVNOW50, Merck Millipore). Each plate contained 16 positive (100 μM Compound B) and 16 negative (2% v/v DMSO) control wells. Compounds were tested in a concentration-response applying 1:3 or 1:4 dilution steps for in total 11 data points. DMSO concentration was 2% (v/v). After 2 h incubation on an overhead shaker (Roto-Shake Genie, Scientific Industries Inc.) at 4° C. the non-bound fraction was removed by washing the beads with DP buffer. Proteins retained on the beads were eluted in SDS sample buffer (200 mM Tris (pH 7.4), 250 mM Trizma Base, 4% (w/v) SDS, 20% (v/v) glycerol, 0.01% (w/v) bromophenol blue, 50 mM dithiothreitol) into a collection plate (384 well polypropylene microplate, V-shape, Greiner, 781 280). Eluates were spotted on nitrocellulose membranes (400 nl per spot) using an automated pin-tool liquid transfer (Biomek FX, Beckman). After drying, the membranes were rehydrated in 20% (v/v) ethanol and blocked by incubation with Odyssey blocking buffer (LICOR, 927-40000) for 1 h at room temperature. Blocked membranes were incubated overnight at 25° C. with Odyssey blocking buffer supplemented with a specific anti-mTOR antibody (Cell Signaling, 2972; 1:500) and 0.4% TWEEN-20. Then the membranes were washed in PBST buffer and incubated for 60 minutes at room temperature with the detection antibody (IRDye™ labelled antibody from LI-COR) diluted in Odyssey blocking buffer (LICOR 927-40000) containing 0.2% TWEEN-20. Then the membranes were washed with PBST and finally rinsed twice with PBS buffer to remove residual Tween-20. The membranes were then scanned with the Odyssey® Infrared Imaging System (LI-COR Biosciences). Fluorescence signals were recorded and analyzed according to the instructions of the manufacturer. Concentration response curves were computed with the software Activity Base. All data were normalized to the mean of 16 high (negative control) and 16 low (positive control) control wells on each plate. […]

Test [2] relates to phosphorylated Akt at serine 473 (pAKTs473) in primary human lung fibroblasts. In words: Highthroughput phosphorylated Akt (Ser473) in vitro immunoassay (MSD). It counts as cell-based. To be noted: Fibroblast, 1 h compound, PDGF-BB 10 ng/ml for 10 min, mean of multiple experiments, read-out: mean pIC50, inhibition of pAkt (Ser473) (converted). The source says: Highthroughput Phosphorylated Akt (Ser473) In Vitro Immunoassay
Immunoassay to measure effect of test compounds on phosphorylated Akt at serine 473 (pAKTs473) in primary human lung fibroblasts (Lonza Group Ltd, Basel, Switzerland, Catalogue No. CC-2512) using the MesoScale Discovery (MSD) platform to quantify levels of total Akt and pAKTser473.
Human lung fibroblasts were routinely maintained in fibroblast basal medium supplemented with 2% foetal bovine serum (FBS), 0.1% human fibroblast growth factor (FGF)-B, 0.1% insulin, 0.1% GA-100 (Lonza Group Ltd, Basel, Switzerland, Catalogue No. CC-3132) at 37° C. in 5% CO2 according to the manufacturer's protocol.
For the assay, cells were harvested using Trypsin/EDTA, (Lonza Group Ltd, Basel, Switzerland, Catalogue No. CC-5012), at working concentration of 0.025%, resuspended to give 3×10^5 cells/ml and 50 ul/well seeded into 384-well plates (Greiner Group, Kremsmunster, Austria, Catalogue No. 781091) in media containing 0.4% FBS and incubated o/n at 37° C. in 5% CO2.
Test compounds were dissolved in 100% DMSO to give 10 mM stock solutions and serially diluted to generate an 11-point concentration response curve. Compound were further diluted by […] into 384-well V-bottom polypropylene plates (Greiner Group, Kremsmunster, Austria, Catalogue No. 781280) with media containing 0.4% FBS to give 50 μM top compound concentration in 0.5% DMSO.
Compounds were transferred to 384-well plates contacting cells (0.1% DMSO final) and incubated for 1 h at 37° C. in 5% CO2, prior to stimulation with platelet-derived growth factor (PDGF)-BB (R&D Systems, Catalogue No. 220-BB) at 10 ng/ml (final) for 10 min at RT. Cell assay plates were incubated on ice and treated with lysis buffer (Cell Signalling Technology, Catalogue No. 9806) containing protease and phosphatase inhibitors (Thermo Scientific, Catalogue No. 78444) followed by shaking for 30 min at 4° C.
MSD plates (MSD, MA6000 384-well GAR plate, Catalogue No. L21RA-2) were blocked with blocking buffer containing TBS (MSD, Cat. No. R61TX-1) with 0.5% bovine serum albumin (BSA) (Sigma Aldrich, Cat. No. A7906), 0.1% tween-20 (Sigma Aldrich, Catalogue No. P2287) and coated with rabbit-anti-human pAkt (s473) ab (Cell Signalling Technology, Catalogue No. CST #4060) at RT with shaking, followed by washing (×3) with 1×TBS wash reagent containing 0.1% Tween-20. Cell lysates (30 ul) were added and MSD plates centrifuged at 1000 rpm at 4° C. o/n.
Plates were washed with 1×TBS wash buffer (×3), prior to addition of mouse-anti-human-total Akt ab (1 mg/ml) (Upstate (Milipore), Catalogue No. 05-591) in blocking buffer and shaken at RT for 1 h. After washing with 1×TBS wash buffer (×3), plates were incubated with goat-anti-mouse SULFO-TAG detection ab (MSD, Catalogue No. R32AC-1) (1:500 in blocking buffer) for 1 h at RT. Plates were washed with 1×TBS (×3) and read buffer (2×) (MSD, Catalogue No. R92TC-1) added before detecting electrochemiluminescence (MSD Sector Imager 6000).
Data analysis was performed by determining % inhibition values for test compounds relative to the minimum (+PDGF-BB stimulation) and maximum responses (no PDGF-BB stimulation) with non-linear regression analysis to determine IC50 values for test compounds.

With `CC[C@H]1COCCN1c1cc(C(C)(C)S(C)(=O)=O)cc(-c2ccc3[nH]c(CNC)cc3n2)n1` [Example 1, [(5-{6-[(3S)-3-ethylmorpholin-4-yl]-4-(2-methanesulfonylpropan-2-yl)pyridin-2-yl}-1H-pyrrolo[3,2-b]pyridin-2-yl)methyl](methyl)amine], the IC50 in test [1] is 2.51 to 31.6 nM and 15.8 nM and 2.51 to 316 nM.

Regarding `CC[C@H]1COCCN1c1cc(CS(C)(=O)=O)cc(-c2ccc3[nH]c(CN(C)CC)cc3n2)n1` [Example 14, (S)—N-((5-(6-(3-ethylmorpholino)-4-((methylsulfonyl)-methyl)pyridin-2-yl)-1H-pyrrolo[3,2-b]pyridin-2-yl)-methyl)-N-methylethanamine], the results for the IC50 in test [1] and in test [2] were 2.51 to 316 nM and 3.16 to 316 nM, respectively.

Turning to `CC[C@H]1COCCN1c1cc(C2(S(C)(=O)=O)CCOCC2)cc(-c2ccc3[nH]c(CNC)cc3n2)n1` [Example 15, (S)-1-(5-(6-(3-ethylmorpholino)-4-(4-(methylsulfonyl)tetrahydro-2H-pyran-4-yl)pyridin-2-yl)-1H-pyrrolo[3,2-b]pyridin-2-yl)-N-methylmethanamine], the IC50 in test [1] is 2.51 to 31.6 nM and 7.94 nM and 2.51 to 316 nM; in test [2], 2.51 to 10 nM.

Consider `CC[C@H]1COCCN1c1cc(C2(S(C)(=O)=O)CCOCC2)cc(-c2ccc3[nH]c(CN(C)CC)cc3n2)n1` [Example 16, (S)—N-((5-(6-(3-ethylmorpholino)-4-(4-(methylsulfonyl)tetrahydro-2H-pyran-4-yl)pyridin-2-yl)-1H-pyrrolo[3,2-b]pyridin-2-yl)methyl)-N-methylethanamine], for which the IC50 in test [1] is 2.51 to 316 nM; in test [2], 3.16 to 316 nM.

As for `CC[C@H]1COCCN1c1cc(C2(S(C)(=O)=O)CCNCC2)cc(-c2ccc3[nH]c(CNC)cc3n2)n1` [Example 24, [(5-{6-[(3S)-3-ethylmorpholin-4-yl]-4-(4-methanesulfonylpiperidin-4-yl)pyridin-2-yl}-1H-pyrrolo[3,2-b]pyridin-2-yl)methyl](methyl)amine], the IC50 in test [1] is 2.51 to 31.6 nM and 2.51 to 316 nM; in test [2], 3.16 to 316 nM.

`CNCc1cc2nc(-c3cc(CS(C)(=O)=O)cc(N4CCOC[C@H]4C)n3)ccc2[nH]1` [Example 26, ({5-[4-(methanesulfonylmethyl)-6-[(3R)-3-methylmorpholin-4-yl]pyridin-2-yl]-1H-pyrrolo[3,2-b]pyridin-2-yl}methyl)(methyl)amine]: the IC50 in test [1] is 2.51 to 316 nM; in test [2], 3.16 to 316 nM.

`CC[C@H]1COCCN1c1cc(C2(S(N)(=O)=O)CCOCC2)cc(-c2ccc3[nH]c(CNC)cc3n2)n1` [Example 27, 4-{2-[(3S)-3-ethylmorpholin-4-yl]-6-{2-[(methylamino)methyl]-1H-pyrrolo[3,2-b]pyridin-5-yl}pyridin-4-yl}oxane-4-sulfonamide]: in test [2], the IC50 was 3.16 to 316 nM.

As for `CC[C@H]1COCCN1c1cc(CS(N)(=O)=O)cc(-c2ccc3[nH]c(CNC)cc3n2)n1` [Example 29, {2-[(3S)-3-ethylmorpholin-4-yl]-6-{2-[(methylamino)methyl]-1H-pyrrolo[3,2-b]pyridin-5-yl}pyridin-4-yl}methanesulfonamide], the IC50 was 2.51 to 31.6 nM and 2.51 to 316 nM in test [1]; 3.16 to 316 nM in test [2].

For `CC[C@H]1COCCN1c1cc(C2(S(C)(=O)=O)CCNCC2)cc(-c2ccc3[nH]c(CO)cc3n2)n1` [Example 36], the IC50 in test [1] is 2.51 to 31.6 nM and 2.51 to 316 nM; in test [2] it was 3.16 to 316 nM.

On to `CNCc1cc2nc(-c3cc(C4(S(C)(=O)=O)CCOCC4)cc(N4CC5CCC(C4)O5)n3)ccc2[nH]1` [Example 37, ({5-[4-(4-methanesulfonyloxan-4-yl)-6-{8-oxa-3-azabicyclo[3.2.1]octan-3-yl}pyridin-2-yl]-1H-pyrrolo[3,2-b]pyridin-2-yl}methyl)(methyl)amine], for which the IC50 was 2.51 to 31.6 nM and 2.51 to 316 nM in test [1]; 3.16 to 316 nM in test [2].

Consider `CC[C@H]1COCCN1c1cc(C2(S(C)(=O)=O)CCN(C(C)=O)CC2)cc(-c2ccc3[nH]c(CNC)cc3n2)n1` [Example 39, 1-(4-{2-[(3S)-3-ethylmorpholin-4-yl]-6-{2-[(methylamino)methyl]-1H-pyrrolo[3,2-b]pyridin-5-yl}pyridin-4-yl}-4-methanesulfonylpiperidin-1-yl)ethan-1-one], for which the IC50 in test [1] is 2.51 to 316 nM.

`CNCc1cc2nc(-c3cc(CS(C)(=O)=O)cc(N4CCCOCC4)n3)ccc2[nH]1` [Example 45, ({5-[4-(methanesulfonylmethyl)-6-(1,4-oxazepan-4-yl)pyridin-2-yl]-1H-pyrrolo[3,2-b]pyridin-2-yl}methyl)(methyl)amine]: the IC50 in test [1] is 2.51 to 316 nM.

With `CNCc1cc2nc(-c3cc(CS(C)(=O)=O)cc(N4CCOCC4)n3)ccc2[nH]1` [Example 46, ({5-[4-(methanesulfonylmethyl)-6-(morpholin-4-yl)pyridin-2-yl]-1H-pyrrolo[3,2-b]pyridin-2-yl}methyl)(methyl)amine], the IC50 in test [1] was 2.51 to 316 nM.
